Data published in patent US20240189285A1, “COMPOSITION AND METHOD FOR ENHANCING MITOCHONDRIAL BIOGENESIS AND ACTIVATING PGC-1A” (NANJING NUTRABUILDING BIO-TECH CO., LTD., priority 2021, published 2024).

How the values were obtained:
Assay type in all cases: cell-based
[1] = tested on: target cells (endothelial cells, C2C12 skeletal muscle cells, etc.); assay: Mitochondrial biogenesis in vitro: mitochondrial mass (flow cytometry, fluorescent microscopy) and mtDNA copy number (quantitative PCR)
Method: (§1) Target cells (endothelial cells, C2C12 skeletal muscle cells, etc.) are obtained according to conventional methods in the art.
The target cells (endothelial cells, C2C12 skeletal muscle cells, etc.) were divided into groups A, B, C and D. B and D group cells were cultured with 50 μM L-Ergothioneine for 12 hours. A and C groups were not cultured with Ergothioneine but only with the usual nutrient solution for 12 hours. Then a certain concentration of H2O2 was used to cause C and D group cells damage, no H2O2 was used on A and B groups. Mitochondrial biogenesis was measured by quantifying both mitochondrial mass and mitochondrial DNA (mtDNA) contents. Mitochondrial mass was measured by flow cytometry and fluorescent microscopy, mtDNA copy number was analyzed by quantitative PCR.

PGC-1α = PGC-1α protein expression by Western blot in target cells
Method: as §1
(§2) The target cells (endothelial cells, C2C12 skeletal muscle cells, etc.) are divided into groups A, B, C and D. B and D group cells were cultured with 50 μM L-Ergothioneine for 12 hours, and A and C groups were not cultured with Ergothioneine but only with the usual nutrient solution for 12 hours. Then a certain concentration of H2O2 was used to cause C and D group cells damage, no H2O2 was used on A and B groups. Then PGC-1α protein expression and Sirt1 protein level were analyzed by Western blot.

Sirt1 = Sirt1 protein level by Western blot in target cells
Method: as §1, §2

[2] = group B: 50 μM L-Ergothioneine for 12 hours, no H2O2, untreated group A = 100

C[N+](C)(C)[C@@H](Cc1c[nH]c(=S)[nH]1)C(=O)[O-] [L-Ergothioneine]
Relative mitochondrial mass [1, 2]: 112% | Relative mtDNA content [1, 2]: 118% | Relative mitochondrial mass ([1]; group D: 50 μM L-Ergothioneine for 12 hours, then H2O2 damage, H2O2-only group C = 78): 90% | Relative mtDNA content ([1]; group D: 50 μM L-Ergothioneine for 12 hours, then H2O2 damage, H2O2-only group C = 89): 93% | PGC-1α level (Western blot) (PGC-1α; group B: 50 μM L-Ergothioneine for 12 hours, no H2O2, untreated group A about 0.0046): ~0.005 | PGC-1α level (Western blot) (PGC-1α; group D: 50 μM L-Ergothioneine for 12 hours, then H2O2 damage, H2O2-only group C about 0.0036): ~0.0043 | Sirt1 level (Western blot) (Sirt1; group B: 50 μM L-Ergothioneine for 12 hours, no H2O2, untreated group A about 0.79): ~0.85 | Sirt1 level (Western blot) (Sirt1; group D: 50 μM L-Ergothioneine for 12 hours, then H2O2 damage, H2O2-only group C about 0.65): ~0.75
